Experiments:
[1] = Water solubility (preparation of drinking water); type: physicochemical
Description: (§1) SKA-31 was dissolved in drinking water at 600 μM for all studies. […] For vehicle treatment, drinking water containing 0.05% β-(hydroxypropyl)-cyclodextrin, NaOH, and sucrose was used. Water bottles were changed twice weekly. Mice were treated with water bottles beginning at 28 days of age and maintained on water bottles for the duration of the experiment.

[2] = both, mouse, in vivo
Description: as §1

[3] = test system: ATXN1[82Q] Purkinje neurons; assay: Analysis of intrinsic dendritic excitability (dendritic calcium spikes); type: cell-based, mice
[4] = test system: ATXN1[82Q] Purkinje neurons; assay: Whole-cell patch-clamp recordings: membrane potential and after-hyperpolarization (AHP); type: cell-based, mice
[5] = test system: non-firing ATXN1[82Q] Purkinje neurons; assay: Cell-attached recordings of Purkinje neuron spiking in acute cerebellar slices; type: cell-based, mice; conditions: 5 weeks of age, chlorzoxazone 50 μM, baclofen 10 μM, SKA-31 10 μM, 1-EBIO 100 μM
SCA patients = conditions: human, in vivo

| SMILES | water solubility [1] | brain level [2] [nM] | plasma level [2] [nM] | dendritic (hyper)excitability: threshold of injected current to elicit dendritic calcium spikes [3] | duration of the AHP ([4]; SKA-31 10 μM, chlorzoxazone 50 μM and baclofen 10 μM) | restoration of repetitive (tonic) spiking in non-firing Purkinje neurons [5] | Other comments: tolerability (SCA patients) | effect of baclofen on dendritic excitability in the presence of TEA ([3]; TEA 1 mM, baclofen 2 μM) | effect of baclofen on dendritic excitability in the presence of U73122 ([3]; U73122 10 μM in recording pipette (phospholipase C inhibitor), baclofen 2 μM) | effect of baclofen on dendritic excitability in the presence of barium ([3]; barium 500 μM, baclofen 2 μM) | effect of baclofen on dendritic excitability with cesium in the recording pipette ([3]; cesium chloride 140 mM in the recording pipette, baclofen 2 μM) | membrane potential of depolarized Purkinje neurons after the agent [4] [mV] |
| --- | --- | --- | --- | --- | --- | --- | --- | --- | --- | --- | --- | --- |
| Nc1nc2c(ccc3ccccc32)s1 [SKA-31, Naphtho[1,2-d]thiazol-2-ylamine] | not easily water-soluble | 1830 ± 1300 | 39.39 ± 8.05 | does not reduce dendritic hyperexcitability | extended the duration of the AHP |  |  |  |  |  |  |  |
| NCC(CC(=O)O)c1ccc(Cl)cc1 (stereo not drawn) [baclofen, Baclofen] |  | 377.35 ± 58.50 | 3060 ± 510 | reduce dendritic hyperexcitability |  | Neither chlorzoxazone alone nor baclofen alone consistently restores spiking | Could not tolerate; | does not block the effect of baclofen | did not prevent the effect of baclofen on dendritic excitability | did not prevent the effect of baclofen | prevents the effect of baclofen | −52 |

Reference: US11382897B2, “Therapeutic combination for treatment of cerebellar ataxia” (The Regents of the University of Michigan, priority 2017, dated 2022)
